Patent publication US6960574B2, “Antagonists of RF-amide neuropeptides” (University of Florida, priority 2002, dated 2005)
Peptide text beside a SMILES is read from it. * marks the point of attachment. Dansyl = CN(C)c1cccc2c(S(=O)(=O)*)cccc12

System: receptor labeled by the radioiodinated analogue of 1 (4, [125I]-YLFQPQRF-NH2); neuropeptide FF receptor
Experiment: Competitive radioligand binding against 4 ([125I]Y8F-amide)
Settings: mixture-based positional scanning; difference from averaged radioligand displacement of whole library (0); about 80 a.u. = 10-fold change in Ki

Point of comparison: CSCC[C@H](NC(=O)[C@H](CC(N)=O)NS(=O)(=O)c1cccc2c(N(C)C)cccc12)C(=O)N[C@@H](CCCNC(=N)N)C(N)=O [Dansyl-NMR-amide] (Dansyl-Asn-Met-Arg-NH2), “Relative Binding Index (RBI)” value 13 a.u.. Against it:
- CN(C)c1cccc2c(S(=O)(=O)N[C@@H](Cc3ccccc3)C(=O)N[C@@H](CCC(=O)O)C(=O)N[C@@H](CCCNC(=N)N)C(N)=O)cccc12 [Dansyl-FER-amide] (Dansyl-Phe-Glu-Arg-NH2) — lower, 9 a.u.
- CN(C)c1cccc2c(S(=O)(=O)NCC(=O)N[C@@H](CCCCN)C(=O)N[C@@H](CCCNC(=N)N)C(N)=O)cccc12 [Dansyl-GKR-amide] (Dansyl-Gly-Lys-Arg-NH2) — higher, 23 a.u.
- CC(C)[C@H](NS(=O)(=O)c1cccc2c(N(C)C)cccc12)C(=O)N[C@@H](CCCCN)C(=O)N[C@@H](CCCNC(=N)N)C(N)=O [Dansyl-VKR-amide] (Dansyl-Val-Lys-Arg-NH2) — lower, −7 a.u.
- CC[C@H](C)[C@H](NC(=O)[C@H](CCC(=O)O)NS(=O)(=O)c1cccc2c(N(C)C)cccc12)C(=O)N[C@@H](CCCNC(=N)N)C(N)=O [Dansyl-EIR-amide] (Dansyl-Glu-Ile-Arg-NH2) — higher, 23 a.u.
- CC(C)[C@H](NC(=O)[C@@H](NS(=O)(=O)c1cccc2c(N(C)C)cccc12)[C@@H](C)O)C(=O)N[C@@H](CCCNC(=N)N)C(N)=O [Dansyl-TVR-amide] (Dansyl-Thr-Val-Arg-NH2) — lower, −13 a.u.
- CN(C)c1cccc2c(S(=O)(=O)N[C@@H](Cc3cnc[nH]3)C(=O)N[C@@H](Cc3ccccc3)C(=O)N[C@@H](CCCNC(=N)N)C(N)=O)cccc12 [Dansyl-HFR-amide] (Dansyl-His-Phe-Arg-NH2) — higher, 15 a.u.
- C[C@@H](O)[C@H](NC(=O)[C@H](CCCNC(=N)N)NS(=O)(=O)c1cccc2c(N(C)C)cccc12)C(=O)N[C@@H](CCCNC(=N)N)C(N)=O [Dansyl-RTR-amide] (Dansyl-Arg-Thr-Arg-NH2) — lower, 12 a.u.
- CN(C)c1cccc2c(S(=O)(=O)N[C@@H](Cc3c[nH]cn3)C(=O)NCC(=O)N[C@@H](CCCNC(=N)N)C(N)=O)cccc12 [Dansyl-HGR-amide] (Dansyl-His-Gly-Arg-NH2) — higher, 22 a.u.
- CN(C)c1cccc2c(S(=O)(=O)N3CCC[C@H]3C(=O)N[C@@H](CCC(=O)O)C(=O)N[C@@H](CCCNC(=N)N)C(N)=O)cccc12 [Dansyl-PER-amide] (Dansyl-Pro-Glu-Arg-NH2) — lower, −48 a.u.
- CC(C)[C@H](NS(=O)(=O)c1cccc2c(N(C)C)cccc12)C(=O)NCC(=O)N[C@@H](CCCNC(=N)N)C(N)=O [Dansyl-VGR-amide] (Dansyl-Val-Gly-Arg-NH2) — lower, 1 a.u.
- CN(C)c1cccc2c(S(=O)(=O)N3CCC[C@H]3C(=O)N[C@@H](CC(N)=O)C(=O)N[C@@H](CCCNC(=N)N)C(N)=O)cccc12 [Dansyl-PNR-amide] (Dansyl-Pro-Asn-Arg-NH2) — lower, −47 a.u.
- C[C@@H](O)[C@H](NS(=O)(=O)c1cccc2c(N(C)C)cccc12)C(=O)N[C@@H](CCCNC(=N)N)C(=O)N[C@@H](CCCNC(=N)N)C(N)=O [Dansyl-TRR-amide] (Dansyl-Thr-Arg-Arg-NH2) — lower, −10 a.u.
- CC[C@H](C)[C@H](NS(=O)(=O)c1cccc2c(N(C)C)cccc12)C(=O)N[C@H](C(=O)N[C@@H](CCCNC(=N)N)C(N)=O)[C@@H](C)O [Dansyl-ITR-amide] (Dansyl-Ile-Thr-Arg-NH2) — lower, −6 a.u.
- CN(C)c1cccc2c(S(=O)(=O)N[C@@H](Cc3ccc(O)cc3)C(=O)N[C@@H](CCCCN)C(=O)N[C@@H](CCCNC(=N)N)C(N)=O)cccc12 [Dansyl-YKR-amide] (Dansyl-Tyr-Lys-Arg-NH2) — lower, 5 a.u.
- CN(C)c1cccc2c(S(=O)(=O)N[C@@H](CCC(=O)O)C(=O)N[C@@H](Cc3ccccc3)C(=O)N[C@@H](CCCNC(=N)N)C(N)=O)cccc12 [Dansyl-EFR-amide] (Dansyl-Glu-Phe-Arg-NH2) — higher, 15 a.u.
- C[C@H](NC(=O)[C@H](Cc1c[nH]cn1)NS(=O)(=O)c1cccc2c(N(C)C)cccc12)C(=O)N[C@@H](CCCNC(=N)N)C(N)=O [Dansyl-HAR-amide] (Dansyl-His-Ala-Arg-NH2) — lower, −32 a.u.
- CSCC[C@H](NS(=O)(=O)c1cccc2c(N(C)C)cccc12)C(=O)N[C@H](C(=O)N[C@@H](CCCNC(=N)N)C(N)=O)C(C)C [Dansyl-MVR-amide] (Dansyl-Met-Val-Arg-NH2) — lower, −49 a.u.
- CC(C)[C@H](NC(=O)[C@H](Cc1c[nH]c2ccccc12)NS(=O)(=O)c1cccc2c(N(C)C)cccc12)C(=O)N[C@@H](CCCNC(=N)N)C(N)=O [Dansyl-WVR-amide] (Dansyl-Trp-Val-Arg-NH2) — lower, 4 a.u.
- CN(C)c1cccc2c(S(=O)(=O)N[C@@H](CO)C(=O)N[C@@H](CCCCN)C(=O)N[C@@H](CCCNC(=N)N)C(N)=O)cccc12 [Dansyl-SKR-amide] (Dansyl-Ser-Lys-Arg-NH2) — higher, 14 a.u.
- CN(C)c1cccc2c(S(=O)(=O)N[C@@H](CC(=O)O)C(=O)N[C@@H](Cc3c[nH]cn3)C(=O)N[C@@H](CCCNC(=N)N)C(N)=O)cccc12 [Dansyl-DHR-amide] (Dansyl-Asp-His-Arg-NH2) — lower, −11 a.u.
- CN(C)c1cccc2c(S(=O)(=O)N[C@@H](CCCCN)C(=O)NCC(=O)N[C@@H](CCCNC(=N)N)C(N)=O)cccc12 [Dansyl-KGR-amide] (Dansyl-Lys-Gly-Arg-NH2) — higher, 30 a.u.
- CC[C@H](C)[C@H](NC(=O)[C@H](Cc1ccc(O)cc1)NS(=O)(=O)c1cccc2c(N(C)C)cccc12)C(=O)N[C@@H](CCCNC(=N)N)C(N)=O [Dansyl-YIR-amide] (Dansyl-Tyr-Ile-Arg-NH2) — the same, 13 a.u.
- CN(C)c1cccc2c(S(=O)(=O)N[C@@H](CC(=O)O)C(=O)N[C@@H](CCC(=O)O)C(=O)N[C@@H](CCCNC(=N)N)C(N)=O)cccc12 [Dansyl-DER-amide] (Dansyl-Asp-Glu-Arg-NH2) — lower, −5 a.u.
- CN(C)c1cccc2c(S(=O)(=O)N[C@@H](Cc3ccccc3)C(=O)N[C@@H](Cc3ccc(O)cc3)C(=O)N[C@@H](CCCNC(=N)N)C(N)=O)cccc12 [Dansyl-FYR-amide] (Dansyl-Phe-Tyr-Arg-NH2) — lower, 8 a.u.
- CN(C)c1cccc2c(S(=O)(=O)N[C@@H](CO)C(=O)N[C@@H](CCCNC(=N)N)C(=O)N[C@@H](CCCNC(=N)N)C(N)=O)cccc12 [Dansyl-SRR-amide] (Dansyl-Ser-Arg-Arg-NH2) — higher, 15 a.u.
- CC(C)C[C@H](NC(=O)[C@H](CC(=O)O)NS(=O)(=O)c1cccc2c(N(C)C)cccc12)C(=O)N[C@@H](CCCNC(=N)N)C(N)=O [Dansyl-DLR-amide] (Dansyl-Asp-Leu-Arg-NH2) — lower, −14 a.u.
- CN(C)c1cccc2c(S(=O)(=O)N[C@@H](Cc3ccccc3)C(=O)N[C@@H](CCCNC(=N)N)C(=O)N[C@@H](CCCNC(=N)N)C(N)=O)cccc12 [Dansyl-FRR-amide] (Dansyl-Phe-Arg-Arg-NH2) — lower, 8 a.u.
- C[C@@H](O)[C@H](NC(=O)[C@H](CC(=O)O)NS(=O)(=O)c1cccc2c(N(C)C)cccc12)C(=O)N[C@@H](CCCNC(=N)N)C(N)=O [Dansyl-DTR-amide] (Dansyl-Asp-Thr-Arg-NH2) — lower, 0 a.u.
- CC[C@H](C)[C@H](NS(=O)(=O)c1cccc2c(N(C)C)cccc12)C(=O)N[C@@H](Cc1c[nH]cn1)C(=O)N[C@@H](CCCNC(=N)N)C(N)=O [Dansyl-IHR-amide] (Dansyl-Ile-His-Arg-NH2) — lower, −17 a.u.
- CN(C)c1cccc2c(S(=O)(=O)N3CCC[C@H]3C(=O)N[C@@H](CC(=O)O)C(=O)N[C@@H](CCCNC(=N)N)C(N)=O)cccc12 [Dansyl-PDR-amide] (Dansyl-Pro-Asp-Arg-NH2) — lower, −66 a.u.
- CN(C)c1cccc2c(S(=O)(=O)N[C@@H](CCCCN)C(=O)N[C@@H](CC(N)=O)C(=O)N[C@@H](CCCNC(=N)N)C(N)=O)cccc12 [Dansyl-KNR-amide] (Dansyl-Lys-Asn-Arg-NH2) — higher, 26 a.u.
- CN(C)c1cccc2c(S(=O)(=O)N[C@@H](CCC(N)=O)C(=O)N[C@@H](Cc3c[nH]cn3)C(=O)N[C@@H](CCCNC(=N)N)C(N)=O)cccc12 [Dansyl-QHR-amide] (Dansyl-Gln-His-Arg-NH2) — higher, 16 a.u.
- CN(C)c1cccc2c(S(=O)(=O)N[C@@H](CC(N)=O)C(=O)N[C@@H](CCCNC(=N)N)C(=O)N[C@@H](CCCNC(=N)N)C(N)=O)cccc12 [Dansyl-NRR-amide] (Dansyl-Asn-Arg-Arg-NH2) — lower, 11 a.u.
- CCC(C)C(NC(=O)C(CCCCN)NS(=O)(=O)c1cccc2c(N(C)C)cccc12)C(=O)NC(CCCNC(=N)N)C(N)=O (stereo not drawn) [Dansyl-KIR-amide] (Dansyl-Lys-Ile-Arg-NH2; configuration not given here) — higher, 31 a.u.
- C[C@@H](O)[C@H](NS(=O)(=O)c1cccc2c(N(C)C)cccc12)C(=O)N[C@@H](Cc1c[nH]c2ccccc12)C(=O)N[C@@H](CCCNC(=N)N)C(N)=O [Dansyl-TWR-amide] (Dansyl-Thr-Trp-Arg-NH2) — lower, 0 a.u.
- C[C@H](NC(=O)[C@H](CC(N)=O)NS(=O)(=O)c1cccc2c(N(C)C)cccc12)C(=O)N[C@@H](CCCNC(=N)N)C(N)=O [Dansyl-NAR-amide] (Dansyl-Asn-Ala-Arg-NH2) — lower, −36 a.u.
- C[C@@H](O)[C@H](NS(=O)(=O)c1cccc2c(N(C)C)cccc12)C(=O)N[C@@H](CCCCN)C(=O)N[C@@H](CCCNC(=N)N)C(N)=O [Dansyl-TKR-amide] (Dansyl-Thr-Lys-Arg-NH2) — lower, −11 a.u.
